Test [1] has as its target T1, Sodium-dependent dopamine transporter (Homo sapiens, UniProt Q01959). The experiment in a line: Ability to inhibit [3H]mazindol binding to cloned human dopamine (DA) transporter.
The target in test [2] is T2, Sodium-dependent serotonin transporter (Homo sapiens, UniProt P31645).
Description: Ability to inhibit [3H]paroxetine binding to cloned human serotonin (5-HT) transporter
Test [3] addresses T3, Sodium-dependent noradrenaline transporter (Homo sapiens, UniProt P23975).
For test [4], the target named is T3, Sodium-dependent noradrenaline transporter. Put plainly: Ability to inhibit [3H]nisoxetine binding to cloned human norepinephrine (NE) transporter; Average of two experiments.
Test [5] deals with T1, Sodium-dependent dopamine transporter.
Description: Ability to inhibit [3H]mazindol binding to cloned human dopamine (DA) transporter; Average of two experiments
The target of test [6] is T2, Sodium-dependent serotonin transporter. The source holds these as a separate data set.
Description: Ability to inhibit [3H]paroxetine binding to cloned human serotonin (5-HT) transporter; Average of two experiments

For 12 molecules, Ki results are on record in ChEMBL document CHEMBL1149199 (Bioorg Med Chem Lett, 2004).

T1 sequence (Q01959 whole entry): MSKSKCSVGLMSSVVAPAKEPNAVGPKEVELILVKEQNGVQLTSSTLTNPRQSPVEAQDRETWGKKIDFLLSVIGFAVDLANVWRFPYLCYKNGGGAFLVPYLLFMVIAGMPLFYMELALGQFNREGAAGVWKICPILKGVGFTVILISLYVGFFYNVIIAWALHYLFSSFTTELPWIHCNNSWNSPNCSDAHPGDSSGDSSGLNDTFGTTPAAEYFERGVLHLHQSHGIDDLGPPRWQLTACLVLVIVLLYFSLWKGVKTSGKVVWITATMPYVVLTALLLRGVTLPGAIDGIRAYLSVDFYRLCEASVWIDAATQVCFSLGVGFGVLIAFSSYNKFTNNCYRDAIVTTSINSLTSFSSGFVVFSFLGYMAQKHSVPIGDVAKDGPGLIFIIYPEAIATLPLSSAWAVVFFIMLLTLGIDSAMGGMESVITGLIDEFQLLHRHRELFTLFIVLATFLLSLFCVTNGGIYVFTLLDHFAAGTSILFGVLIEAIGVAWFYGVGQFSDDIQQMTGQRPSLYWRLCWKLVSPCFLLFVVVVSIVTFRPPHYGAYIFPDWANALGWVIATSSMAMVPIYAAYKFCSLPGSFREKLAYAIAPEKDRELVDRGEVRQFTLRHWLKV
T2 sequence (P31645 whole entry): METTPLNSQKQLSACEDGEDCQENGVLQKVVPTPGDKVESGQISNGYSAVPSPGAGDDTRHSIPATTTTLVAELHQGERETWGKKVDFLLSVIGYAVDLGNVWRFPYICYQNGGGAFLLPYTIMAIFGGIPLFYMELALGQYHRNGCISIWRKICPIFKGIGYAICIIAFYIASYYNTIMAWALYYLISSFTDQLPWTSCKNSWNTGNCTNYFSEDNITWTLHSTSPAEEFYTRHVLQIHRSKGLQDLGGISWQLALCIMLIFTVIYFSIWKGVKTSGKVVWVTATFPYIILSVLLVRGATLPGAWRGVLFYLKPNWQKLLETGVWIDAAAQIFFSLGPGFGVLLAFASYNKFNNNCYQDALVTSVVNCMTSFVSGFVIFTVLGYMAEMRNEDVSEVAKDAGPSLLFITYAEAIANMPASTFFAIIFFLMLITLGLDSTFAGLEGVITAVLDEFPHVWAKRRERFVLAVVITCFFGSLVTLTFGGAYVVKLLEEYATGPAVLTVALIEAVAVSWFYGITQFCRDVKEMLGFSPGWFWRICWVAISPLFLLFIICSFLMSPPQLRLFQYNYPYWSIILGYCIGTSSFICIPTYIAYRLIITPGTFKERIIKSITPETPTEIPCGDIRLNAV
T3 sequence (P23975 whole entry): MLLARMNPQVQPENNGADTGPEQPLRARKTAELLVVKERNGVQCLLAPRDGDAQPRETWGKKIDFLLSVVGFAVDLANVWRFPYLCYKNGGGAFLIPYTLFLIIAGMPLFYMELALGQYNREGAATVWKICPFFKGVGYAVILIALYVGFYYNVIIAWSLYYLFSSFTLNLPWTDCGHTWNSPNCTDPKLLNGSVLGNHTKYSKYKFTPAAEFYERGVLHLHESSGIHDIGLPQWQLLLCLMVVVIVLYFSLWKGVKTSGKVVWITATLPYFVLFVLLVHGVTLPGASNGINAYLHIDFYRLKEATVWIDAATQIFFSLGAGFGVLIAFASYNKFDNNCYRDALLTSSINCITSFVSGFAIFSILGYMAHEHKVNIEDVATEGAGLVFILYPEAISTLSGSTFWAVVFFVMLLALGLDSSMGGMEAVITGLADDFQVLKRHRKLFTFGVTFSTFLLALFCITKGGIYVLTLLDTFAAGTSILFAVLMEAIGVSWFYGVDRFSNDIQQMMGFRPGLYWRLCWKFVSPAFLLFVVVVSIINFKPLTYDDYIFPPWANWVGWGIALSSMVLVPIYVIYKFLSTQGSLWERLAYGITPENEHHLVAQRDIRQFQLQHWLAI

A word on the Ki: it is a dissociation constant, usually derived from enzyme kinetics or from competition with a known ligand. For the molecule `CNCC[C@H](Oc1cccc2c(O)c(O)ccc12)c1cccs1` (stereo in doubt; form 1), the Ki in test [1] was greater than 10000 nM; in test [2], 31.7 nM; in test [3], 554 nM.
On the same counts, the results for `CNCC[C@H](Oc1ccc(O[C@@H]2O[C@H](C(=O)O)[C@@H](O)[C@H](O)[C@H]2O)c2ccccc12)c1cccs1` are 3510 nM, greater than 10000 nM and greater than 10000 nM.
In the case of `CNCC[C@H](Oc1cccc2c(O[C@@H]3O[C@H](C(=O)O)[C@@H](O)[C@H](O)[C@H]3O)c(OC)ccc12)c1cccs1`, the Ki in test [1], in test [2] and in test [3] was greater than 10000 nM in each case.
In the case of `CNCC[C@H](Oc1cccc2c(OS(=O)(=O)O)c(OC)ccc12)c1cccs1`, the inhibition constant (Ki) in test [1] was greater than 10000 nM; in test [2], 3120 nM; in test [3], greater than 10000 nM.
As to `CNCC[C@H](Oc1ccc(O)c2ccccc12)c1cccs1`, the Ki in test [4] came to 97.1 nM; in test [5] it was 130 nM; in test [6], 63.9 nM.
Taken in the same sequence, the figures for `CNCC[C@H](Oc1cccc2cc(O)ccc12)c1cccs1` were 4.72 nM, 163 nM and 1.06 nM.
Take `CNCC[C@H](Oc1cccc2c(O[C@@H]3O[C@H](C(=O)O)[C@@H](O)[C@H](O)[C@H]3O)c(O[C@@H]3O[C@H](C(=O)O)[C@@H](O)[C@H](O)[C@H]3O)ccc12)c1cccs1`: the Ki in test [1], in test [2] and in test [3] was greater than 10000 nM in each case.
Regarding `CNCC[C@H](Oc1cccc2c(O)c(OC)ccc12)c1cccs1`, the figures for the Ki in test [1], in test [2] and in test [3] were 2810 nM, 266 nM and 920 nM, respectively.
On to `CNCC[C@H](Oc1cccc2c(OC)c(O)ccc12)c1cccs1`, for which the Ki in test [4] stood at 235 nM; in test [5], 353 nM; in test [6], 3.66 nM.
With `CNCC[C@H](Oc1cccc2c(O)c(O)ccc12)c1cccs1` (stereo in doubt; form 2), the Ki is 7270 nM in test [1], 120 nM in test [2] and 695 nM in test [3].
Turning to `CNCC[C@H](Oc1cccc2c(O)cccc12)c1cccs1`, the figures for the Ki in test [4], in test [5] and in test [6] were 18.4 nM, 241 nM and 9.6 nM, respectively.
Take `CNCC[C@H](Oc1cccc2cc(O[C@@H]3O[C@H](C(=O)O)[C@@H](O)[C@H](O)[C@H]3O)ccc12)c1cccs1`: the Ki in test [1] was greater than 10000 nM; in test [2] it was 1460 nM; in test [3] it was 5450 nM.
